Source: patent EP2891491A1, “Use of (r)-phenylpiracetam for the treatment of sleep disorders” (Merz Pharma GmbH & Co. KGaA, priority 2014, dated 2015)

Tests used:
[1] = humans, administered orally; cited from earlier work
rats = assay: motivation tests: progressive ratio task, cost-benefit choice test, consumption test; format: in vivo
Procedure: EXAMPLE 6: Effect of (R)-phenylpiracetam in motivation tests - Figs. 5, 6, 7, 8
Methylphenidate purchased from Sigma (Taufkirchen, Germany) was dissolved in distilled water fresh for each test day. D-Amphetamine purchased from Sigma (Taufkirchen, Germany) was dissolved in 0.9% sterile NaCl solution fresh for each test day. (R)-Phenylpiracetam was dissolved in distilled water fresh for each test day.
One hundred and three male Sprague-Dawley rats (Janvier, Le Genest-St-Isle, France) weighing 225-250 g on arrival were used.
The animals were kept under standard laboratory conditions in groups of up to 4 per care with ad libitum access to water. Standard diet for rodents (Altromin) was available to the animals at 15 g per animal/day
For each test described below, two independent experiments were performed using an identical protocol. After continuous reinforcement training (CRF) training (see below) all animals were assigned to treatment groups, such that performance across all the groups was similar. The treatment groups were evenly distributed throughout the caging system.
In experiment 1 and 2 the following protocols were used:
Overview: Three tests were performed in a consecutive manner on subsequent days. On day 1-2, animals were habituated individually to Skinner boxes in two sessions, one per day, for 30 min. Animals received "free" food pellets at a random time (one pellet per minute on average). On days 3-8 animals were trained in Skinner boxes on a continuous reinforcement schedule (one pellet per lever press). On days 9-10 they were tested in the progressive ratio test (Test 1) off-drug, on days 11-12 on-drug. On day 13, a choice test (Test 2) was performed on-drug, on day 14, a consumption test (Test 3) was performed on-drug. Below, tests are described in detail.
Behavioral testing was conducted in 12 operant test chambers (Med Associates, St. Albans, USA). Each chamber was equipped with a retractable lever, a food dispenser with receptacle, an overhead house light and two stimulus lights, one above the lever and the other above the food receptacle. An infrared photocell beam detected nose pokes into the food receptacle. The apparatus was controlled by a computer system (SmartControl®-Interface and MedPC-software, Med Associates, St. Albans, USA). The light above the food receptacle indicated the delivery of a food pellet in the receptacle. Rats were first habituated to the operant boxes for two sessions (30 min each) on two consecutive days. Thereafter, animals were trained for six sessions on the CRF schedule for 30 min. Followed by 4 sessions (two session off-drug followed by two sessions on-drug) of an increasing fixed ratio (FR) schedule in steps of 5, with 3 repetitions of each step (i.e. 1-1-1; 5-5-5; 10-10-10; ...). When the required FR value of each trial was achieved the light above the food receptacle indicated the delivery of a single food pellet (45 mg, Bioserve, USA). The light remained on until the rat poked its nose in the receptacle. Lever presses while the light was on were counted as perseverative lever presses; they were counted but had no programmed consequences. […] For each session, the value of the last completed ratio (breaking point) was recorded as well as the amount of received rewards, the perseverative lever presses, the duration of the session and the latency to respond. Animals of all treatment groups received respective vehicle/drug infusions 30 min pre-test on the final two sessions involving testing under a PR schedule.
In this task the rats had the choice between working for their preferred food (Bioserve pellets) by pressing the lever on a PR schedule as described above or obtaining lab chow being freely available in a dish (about 15 g) within the operant chamber. The food receptacle and the lever were positioned on the same wall of the operant chamber, the dish containing the lab chow was situated in a corner on the opposite side of the operant chamber. […]

[2] = just slightly stronger with (R)- than with (S)-phenylpiracetam; cited from earlier work
subjects with PD and EDS = conditions: 200 to 400 mg/day vs placebo, 40 subjects with PD and EDS; cited from earlier work

NC(=O)CN1CC(c2ccccc2)CC1=O (racemic) [phenylpiracetam, 2-(4-phenyl-2-oxopyrrolidin-1-yl)acetamide]
half-life [1]: 3 to 5 h

NC(=O)CN1C[C@H](c2ccccc2)CC1=O [(S)-phenylpiracetam, reference compound]
effect on motivation (rats; 100 mg/kg): only a very weak effect | effect on motivation relative to (R)-phenylpiracetam (rats; 100 mg/kg, times lower than (R)-phenylpiracetam): 2.5 times | effect on motivation (rats; 200 mg/kg): no significant effect | locomotor activity in the open-field test [2]: significant increase

NC(=O)C[S+]([O-])C(c1ccccc1)c1ccccc1 (stereo not drawn) [modafinil]
Epworth sleepiness score (primary outcome measure) and secondary outcome measures (subjects with PD and EDS): no benefit
